Data set [1] in a line: Intestinal-specific parallel artificial membrane permeability assay (PAMPA-GI). It counts as in vitro ADME. Conditions: gradient pH system (pH donor 6.5 → pH acceptor 7.4) after 4 h, at 37 °C, mean ± S.E.M, n = 3. Here is the method:
(§1) Filtrates and calibration solutions (5–500 μ M) of the kinetic solubility study and starting donor and acceptor solutions of the PAMPA-GI study were investigated by HPLC-DAD-MS. LC-MS analysis was performed using a Waters 2795 HPLC with a Waters 2487 DAD detector coupled with a Micromass Quattro Ultima TMPt quadrupol mass spectrometer equipped with an ESI source. Measurements were performed on a Waters XSelect C18 (150 × 4.6 mm; 3.5 μm) column with a […] eluent flow rate and the temperature set at 40 °C. The composition of eluent A was MilliQ water with 0.1% formic acid, and that of eluent B was an acetonitrile and MilliQ water mixture (95:5, v/v), also with 0.1% formic acid. The following linear gradient program was used: 0–6 min, 10–100% B; this was held for 3 min, then from 9.01 min on, back to the starting composition of 10% B–90% A. The injection volume was 10 μL for each sample. Chromatographic profiles were registered at dual wavelength, 220 and 240 nm. The mass spectrometer was used in negative ion mode for samples 2, 3 and 4b, and in positive ion mode for other samples. The operating parameters of the MS were: Mass range of m/z 150–700. Nitrogen gas flow rate was 350 L/h, temperature of 350 °C and pressure of 6 bar. The quadrupol temperature was 120 °C, and the capillary voltage was 2.5 kV. Fragmentor’s voltage of 60 V.
(§2) Intestinal (GI) permeability was determined by using an intestinal-specific parallel artificial membrane permeability assay (PAMPA-GI [36]]). […] All solutions were filtered by MultiScreen HTS Vacuum Manifold (Merck Ltd., Budapest, Hungary) after the incubation period. The target concentration was 500 μM for every sample investigated. The intestinal-specific effective permeability of the samples was determined by PAMPA-GI. To prepare starting solutions for a 96-well donor plate, 15 μLs of the 10 mM DMSO stock solution of investigation compounds and 285 μL pH 6.5 phosphate buffer solution were mixed. These solutions were left in a shaking incubator (300 rpm) at 25 °C for 1 h. Meanwhile, a 96-well acceptor plate was filled with 300 μL of pH 7.4 PBS buffer solution containing 5% DMSO. The intestinal-specific artificial membrane was prepared the following way: the hydrophobic filter material of the donor plate was coated with a mixture of phosphatidylcholine/cholesterol = 2:1 (5 μL, 4 % (w/v) in dodecane). After that, all donor wells were filled with 150 μL of the starting donor solutions, and they were carefully placed on the acceptor plate and incubated at 37 °C for 4 h. After the end of the incubation period the donor and acceptor plates were separated carefully. A total of 150 μL of the donor, acceptor and the starting donor solutions were sampled and analysed with HPLC-DAD-MS. The effective permeability and membrane retention of drugs were calculated using the following equations: Pe=−2.303/A·(t−τss)·1/1+rv·lg[−rv+(1+rv/1−MR)·]CD(t)/CD(0) MR=1−CD(t)/CD(0)−VA·CA(t)/VD·CD(0) where Pe is the effective permeability coefficient (cm/s), A is the filter area (0.3 cm^2), VD and VA are the volumes in the donor (0.15 cm^3) and acceptor phase (0.3 cm^3), t is the incubation time (s), τSS is the time to reach steady-state (s), CD(t) is the concentration of the compound in the donor phase at time point t (mol/cm^3), CD(0) is the concentration of the compound in the donor phase at time point zero (mol/cm^3), rv is the aqueous compartment volume ratio (VD/VA), MR is the membrane retention factor.
In general terms: PAMPA measures passive passage across an artificial lipid membrane.

The test system of data set [2] is human cancer cell lines (HeLa, SiHa, A2780, MCF-7 and MDA-MB-231). Briefly: MTT antiproliferative assay, whole cancer cell panel. To be noted: 10 and 30 μM. It counts as cell-based. Here is the method: (§3) The in vitro antiproliferative activities of the synthesised aminotriols 5–18 against a panel of different human cancer cell lines of gynecological origin, including cervical (SiHA and HeLa), breast (MCF7 and MDA-MB-231), ovary (A2780) cancers and NIH/3T3 healthy fibroblasts, were assayed by the MTT method. Cisplatin, a clinically applied anticancer agent was used as a reference compound, and the results are summarised in Figure 3 and Table S1 in the Supplementary Materials.
(§4) The growth-inhibitory effects of the presented terpenes were determined by a standard MTT [3-(4,5-dimethylthiazol2-yl)-2,5-diphenyltetrazolium bromide] assay against […] human cancer cell lines (cervical cancer HeLa and SiHa cell lines, breast cancer MCF-7 and MDA-MB-231 and ovarian cancer A2780). Murine embryonal fibroblast cells (NIH/3T3) were used to determine selectivity. All cell lines were purchased from the European Collection of Cell Cultures (Salisbury, UK). The cells were cultivated in Eagle’s minimal essential medium supplemented with 10% fetal bovine serum, 1% non-essential amino acids, and 1% Antibiotic-Antimycotic complex (penicillin, streptomycin, amphotericin B) at 37 °C in a humidified atmosphere containing 5% CO2. All media and supplements were purchased from Lonza Group Ltd. (Basel, Switzerland). Cancer cells were seeded into 96-well plates (5000 cells/well) after an overnight incubation, and the test compounds were added at two different concentrations (10 μM and 30 μM) and incubated for another 72 h under cell-culturing conditions. Finally, 20 μL of a 5 mg/mL MTT solution was added to each well, and the contents were incubated for a further 4 h. The medium was removed, and the precipitated formazan crystals were dissolved in DMSO by shaking at 37 °C for 60 min. The absorbance was measured at 545 nm by using a microplate reader (SPECTROStar Nano, BMG Labtech, Offenburg, Germany). Clinically utilised anticancer agent cisplatin (Ebewe GmbH, Unterach, Austria) was included as a reference molecule. Calculations were performed using the GraphPad Prism 9 software (GraphPad Software Inc., San Diego, CA, USA).
Background: Tetrazolium assays rely on reduction of a dye to a coloured formazan, in cell work by metabolically active cells.

A short description of data set [3]: Kinetic aqueous solubility. Conditions: phosphate buffered saline with 5% DMSO, aqueous with cosolvent or surfactant or cyclodextrin, kinetic from dmso stock; after 2 h, at 37 °C in PBS, pH 7.4, 5% DMSO; target concentration 500 μM; mean ± S.E.M, n = 3. It counts as physicochemical. Here is the method:
as §1, §2

The subject of data set [4] is A2780 cells. Briefly: MTT antiproliferative assay, A2780. To be noted: for inhibition at 10 µM / inhibition at 30 µM: Homo sapiens, 72 h, values <20% considered negligible, read-out: Growth inhibition (%) ± SEM, A2780; for inhibition at 10 µM: A2780, 10 μM; for inhibition at 30 µM: A2780, 30 μM. It counts as cell-based, human. Here is the method: as §3, §4
In data set [5] the test system is MCF-7 cells. Briefly: MTT antiproliferative assay, MCF-7. The format is cell-based, human. To be noted: for inhibition at 10 µM / inhibition at 30 µM: Homo sapiens, 72 h, values <20% considered negligible, read-out: Growth inhibition (%) ± SEM, MCF-7; for inhibition at 10 µM: MCF7, 10 μM; for inhibition at 30 µM: MCF7, 30 μM. The protocol: as §3, §4
In data set [6] the test system is MDA-MB-231 cells. Briefly: MTT antiproliferative assay, MDA-MB-231. It counts as cell-based, human. To be noted: for inhibition at 10 µM / inhibition at 30 µM: Homo sapiens, 72 h, values <20% considered negligible, read-out: Growth inhibition (%) ± SEM, MDA-MB-231; for inhibition at 10 µM: MDA-MB-231, 10 μM; for inhibition at 30 µM: MDA-MB-231, 30 μM. Here is the method:
as §3, §4

In data set [7] the test system is HeLa cells. The data set is described as follows: MTT antiproliferative assay, HeLa. The format is cell-based, human. Conditions: for inhibition at 10 µM / inhibition at 30 µM: Homo sapiens, HeLa, 72 h, values <20% considered negligible, read-out: Growth inhibition (%) ± SEM, HeLa. Here is the method: as §3, §4
Data set [8] concerns NIH/3T3 fibroblasts. Briefly: MTT assay on fibroblasts (selectivity). The format is cell-based, murine. To be noted: Mus musculus, 72 h, values <20% considered negligible, read-out: Growth inhibition (%) ± SEM, NIH/3T3; for inhibition at 10 µM: NIH3T3, 10 μM; for inhibition at 30 µM: NIH3T3, 30 μM. The protocol: as §3, §4
The test system of data set [9] is SiHa cells. The data set is described as follows: MTT antiproliferative assay, SiHa. The format is cell-based, human. Conditions: for inhibition at 10 µM / inhibition at 30 µM: Homo sapiens, SiHa, 72 h, values <20% considered negligible, read-out: Growth inhibition (%) ± SEM, SiHa. Here is the method:
as §3, §4

≈ marks a conversion by molar mass, not a printed value. Entries after “also recorded” stand apart in the source; their conditions may differ. Some results are limits rather than exact numbers.

The term solubility (kinetic) denotes the concentration staying in solution when a stock, usually in DMSO, is diluted into the medium. For the compound `C=C1[C@H](O)[C@@]23CC[C@H]4[C@@](C)(CCC[C@@]4(C)C(=O)O)[C@@H]2CC[C@]1(O)C3` [Compound 2], the Papp at 4 h, 500 µM in data set [1] (PAMPA, read-out: PAMPA-GI Pe) is 0.52 ± 0.02 ×10⁻⁶ cm/s. Besides, the “PAMPA-GI MR (membrane retention)” value in data set [1] was 6.5 ± 0.7%. Also, the “Antiproliferative activity on the cancer cell panel, in words” value (“Antiproliferative activity” below) in [2] is “any notable effect was not detectable”. Also, in [3], the solubility (kinetic) at 2 h worked out at 443 ± 35.7 µM (≈ 148 µg/mL).

Usually melting point stands for the temperature of the solid-liquid transition. `C=C1[C@H](O)[C@@]23CCC4[C@@](C)(CCC[C@@]4(C)C(=O)OC)C2CC[C@]1(O)C3` (stereo partly drawn) [Compound 3, (4R,6aR,7R,9S,11bS)-Methyl 7,9-Dihydroxy-4,11b-dimethyl-8-methylenetetradecahydro-6a,9-methanocyclohepta[a]naphthalene-4-carboxylate]: the melting point lay in the range of 253 to 255 °C. In data set [4], the inhibition at 10 µM was less than 20% and the inhibition at 30 µM is less than 20%. Moreover, in data set [5], the inhibition at 10 µM was less than 20% and the inhibition at 30 µM amounted to 49.2 ± 2.19%. Besides, in data set [6], the inhibition at 10 µM was less than 20% and the inhibition at 30 µM was less than 20%. Besides, in [2], the “Antiproliferative activity” value is on record as “any notable effect was not detectable”. Moreover, in data set [7], the inhibition at 10 µM is less than 20% and the inhibition at 30 µM was 27.9 ± 2.3%. Also, in data set [8], the inhibition at 10 µM was less than 20% and the inhibition at 30 µM is less than 20%. For the same compound, in data set [9], the inhibition at 10 µM is less than 20% and the inhibition at 30 µM was 30.7 ± 2.71%.

In the case of `COC(=O)[C@]1(C)CCC[C@@]2(C)C3CC[C@]4(O)C[C@@]3(CCC21)[C@@H](O)[C@]41CO1` (stereo partly drawn) [Compound 4b, (2’R,4R,6aR,7R,9S,11bS)-Methyl 7,9-Dihydroxy-4,11b-dimethyldodecahydro-1H-spiro[6a,9-methanocyclohepta[a]naphthalene-8,2’-oxirane]-4-carboxylate], the melting point lay within 182 to 185 °C. For the same compound, in data set [4], the inhibition at 10 µM was less than 20% and the inhibition at 30 µM amounted to 62 ± 0.78%. In addition, in data set [5], the inhibition at 10 µM is less than 20% and the inhibition at 30 µM is 53.1 ± 2.2%. In addition, in data set [6], the inhibition at 10 µM was less than 20% and the inhibition at 30 µM turned out to be 36.7 ± 1.62%. The “Antiproliferative activity” value in data set [2] is recorded as “significant activity in higher concentrations only”. Further, the “Antiproliferative effect on HeLa, in words” value in [7] (10 and 30 μM) is listed as “potent inhibition”. In data set [7], the inhibition at 10 µM stood at 30.6 ± 1.09% and the inhibition at 30 µM came out at 95.35 ± 0.11%. Also, in data set [8], the inhibition at 10 µM is less than 20% and the inhibition at 30 µM worked out at 37.2 ± 0.71%. Moreover, in [9], the inhibition at 10 µM is less than 20% and the inhibition at 30 µM was determined as 58 ± 2.66%.

Turning to `COC(=O)[C@]1(C)CCC[C@@]2(C)C3CC[C@]4(O)C[C@@]3(CCC21)[C@@H](O)[C@]41CN(Cc2ccccc2)CO1` (stereo partly drawn) [Compound 18, (4R,5’R,6aR,7R,9S,11bS)-Methyl 3’-Benzyl-7,9-dihydroxy-4,11b-dimethyldodecahydro-1H-spiro [6a,9-methanocyclohepta[a]naphthalene-8,5’-oxazolidine]-4-carboxylate], the melting point is 123 to 125 °C. In addition, the “PAMPA-GI MR (membrane retention)” value in [1] came out at 2.7 ± 0.4%. Also, the “Antiproliferative effect on A2780, in words” value in data set [4] (10 and 30 μM) was “moderate activity”. In data set [4], the inhibition at 10 µM was less than 20% and the inhibition at 30 µM stood at 58.5 ± 3.18%. Besides, the “Antiproliferative effect / selectivity on MCF-7, in words” value in data set [5] (10 and 30 μM) was “Selectivity for MCF-7 cells increased slightly”. Also, in data set [5], the inhibition at 10 µM is less than 20% and the inhibition at 30 µM came to 95.18 ± 0.35%. The “Antiproliferative effect / selectivity on MDA-MB-231, in words” value in data set [6] (10 and 30 μM) is “moderate activity; also recorded: smaller but also selective antiproliferative effect”. In data set [6], the inhibition at 10 µM was less than 20% and the inhibition at 30 µM stood at 87.7 ± 0.91%. Also, the solubility (kinetic) at 2 h in data set [3] amounted to 321 ± 88.5 µM (≈ 155 µg/mL). Besides, in data set [7], the inhibition at 10 µM is less than 20% and the inhibition at 30 µM came out at 41.1 ± 1.95%. Besides, in data set [8], the inhibition at 10 µM is less than 20% and the inhibition at 30 µM was less than 20%. The “Antiproliferative effect on SiHa, in words” value in data set [9] (10 and 30 μM) was “moderate activity”. Besides, in data set [9], the inhibition at 10 µM is less than 20% and the inhibition at 30 µM came out at 66.1 ± 2.45%.

The record behind these values is publication PMC9861858, “Stereoselective Synthesis and Antiproliferative Activities of Tetrafunctional Diterpene Steviol Derivatives” (International Journal of Molecular Sciences, 2023).
